Source: US6500821B1, “4-amino-1-aryl-1,5-dihydropyrrol-2-ones and process for making” (Arzneimittelwerk Dresden GmbH, priority 1999, dated 2002)

Key:
maximal electroshock = assay: Anticonvulsive action, maximal electroshock (MES), mouse i.p.; assay type: in vivo; details: for responders at 100 mg/kg / responders at 300 mg/kg: ip, read-out: Action, % of the protected animals
Protocol: (§1) Compounds according to the present invention were tested in vivo for their anticonvulsive action as shown in Table 1 in mice by i.p. administration, or in rats administered orally according to the internationally customary standard (Pharmac. Weekblad, Sc.Ed. 14 132 (1992) and Antiepileptic Drugs, Third Ed., Raven Press, New York 1989). [table]

s.c. pentetrazole = assay: Anticonvulsive action, s.c. pentetrazole (PTZ), mouse i.p.; assay type: in vivo
Protocol: as §1

Vogel Conflict Test = assay: Vogel Conflict Test; assay type: in vivo, rat; details: for Changed number of impulses to the control in % / dose from which an anxiolytic action was detected / equally effective dose: rat; for dose from which an anxiolytic action was detected / equally effective dose: p.o.
Text: In this model, continuous access to drinking water is withheld from rats for a certain time. After this period, free access is given to drinking water, but is coupled with a mild electrical stimulation. The conflict for the animals is between accepting the electrical stimulation or going without a drink.
The reactions to a conflict situation of this type are similar to the secondary phenomena of anxiety in man. The resulting avoidance reactions can be suppressed by anxiolytic substances. As a measure of the anxiolytic action, the number of tolerated current pulses of the animals treated with the test substance is assessed in comparison to the vehicle-treated control group.

[1] = Octanol/water partition coefficient; assay type: physicochemical; details: for logP: read-out: log P (octanol/water partition coefficient)
[2] = ip, dose 100 mg/kg, read-out: Action, % of the protected animals
[3] = ip, dose 300 mg/kg, read-out: Action, % of the protected animals

NC(=O)N1c2ccccc2C=Cc2ccccc21 [Carbamazepin, reference compound]
Action, % of the protected animals (maximal electroshock; dose 100 mg/kg): 100%
Action, % of the protected animals (s.c. pentetrazole; dose 100 mg/kg): 0%

O=C1CN=C(c2ccccc2Cl)c2cc([N+](=O)[O-])ccc2N1 [Clonazepam, clonazepam]
Changed number of impulses to the control in % (Vogel Conflict Test; 0.1 mg/kg p.o.): 122%
Changed number of impulses to the control in % (Vogel Conflict Test; 0.3 mg/kg p.o.): 128%
Changed number of impulses to the control in % (Vogel Conflict Test; 1.0 mg/kg p.o.): 173%
dose from which an anxiolytic action was detected / equally effective dose (Vogel Conflict Test): 1 mg/kg

O=C1C=C(N2CCOCC2)CN1c1ccccc1Cl [Compound 1, 1-(2-chlorophenyl)-4-morpholin-4-yl-1,5-dihydropyrrol-2-one]
responders at 100 mg/kg (maximal electroshock; dose 100 mg/kg): 0%
dose from which an anxiolytic action was detected / equally effective dose (Vogel Conflict Test): 3 mg/kg
melting point: 154 to 156 °C
responders at 100 mg/kg (s.c. pentetrazole; [2]): 0%

Cc1cccc(N2CC(N3CCOCC3)=CC2=O)c1 [Compound 2, 1-(3-methylphenyl)-4-morpholin-4-yl-1,5-dihydropyrrol-2-one]
responders at 100 mg/kg (maximal electroshock; dose 100 mg/kg): 33%
responders at 300 mg/kg (s.c. pentetrazole; [3]): 100%
logP [1]: 1.46

O=C1C=C(N2CCOCC2)CN1c1ccc(F)cc1 [Compound 3, 1-(4-fluorophenyl)-4-morpholin-4-yl-1,5-dihydropyrrol-2-one]
responders at 100 mg/kg (maximal electroshock; dose 100 mg/kg): 50%
melting point: 226 to 229 °C
responders at 100 mg/kg (s.c. pentetrazole; [2]): 33%

O=C1C=C(N2CCOCC2)CN1c1ccc(Br)cc1 [Compound 5, 1-(4-bromophenyl)-4-morpholin-4-yl-1,5-dihydropyrrol-2-one]
responders at 100 mg/kg (maximal electroshock; dose 100 mg/kg): 33%
melting point: 230 to 233 °C
responders at 100 mg/kg (s.c. pentetrazole; [2]): 100%
logP [1]: 2.16

Cc1ccc(N2CC(N3CCOCC3)=CC2=O)cc1 [Compound 6, 1-(4-methylphenyl)-4-morpholin-4-yl-1,5-dihydropyrrol-2-one]
responders at 300 mg/kg (maximal electroshock; dose 300 mg/kg): 100%
responders at 100 mg/kg (s.c. pentetrazole; [2]): 100%
logP [1]: 1.42

COc1ccc(N2CC(N3CCOCC3)=CC2=O)cc1 [Compound 7, 1-(4-methoxyphenyl)-4-morpholin-4-yl-1,5-dihydropyrrol-2-one]
responders at 300 mg/kg (maximal electroshock; dose 300 mg/kg): 0%
melting point: 198 to 202 °C
responders at 300 mg/kg (s.c. pentetrazole; [3]): 80%
logP [1]: 0.74

O=C1C=C(N2CCOCC2)CN1c1ccc(C(F)(F)F)cc1 [Compound 8, 4-morpholin-4-yl-1-(4-trifluoromethylphenyl)-1,5-dihydropyrrol-2-one]
responders at 100 mg/kg (maximal electroshock; dose 100 mg/kg): 66%
melting point: 205 to 207 °C
responders at 100 mg/kg (s.c. pentetrazole; [2]): 100%

O=C1C=C(N2CCOCC2)CN1c1ccc(OC(F)(F)F)cc1 [Compound 9, 4-morpholin-4-yl-1-(4-trifluoromethoxyphenyl)-1,5-dihydropyrrol-2-one]
responders at 100 mg/kg (maximal electroshock; dose 100 mg/kg): 100%
melting point: 148 to 153 °C
responders at 10 mg/kg (s.c. pentetrazole; ip, dose 10 mg/kg, read-out: Action, % of the protected animals): 50%
logP [1]: 2.45

O=C1C=C(N2CCOCC2)CN1c1ccc(F)c(Cl)c1 [Compound 10, 1-(3-chloro-4-fluorophenyl)-4-morpholin-4-yl-1,5-dihydropyrrol-2-one]
responders at 100 mg/kg (maximal electroshock; dose 100 mg/kg): 100%
melting point: 162 to 166 °C
responders at 100 mg/kg (s.c. pentetrazole; [2]): 100%
logP [1]: 2.19

COc1cc(N2CC(N3CCOCC3)=CC2=O)cc(OC)c1OC [Compound 11, 4-morpholin-4-yl-1-(3,4,5-trimethoxyphenyl)-1,5-dihydropyrrol-2-one]
responders at 300 mg/kg (maximal electroshock; dose 300 mg/kg): 0%
melting point: 179 to 182 °C
responders at 300 mg/kg (s.c. pentetrazole; [3]): 66%

Cc1cccc(N2CC(N3CCCCC3)=CC2=O)c1 [Compound 12, 1-(3-methylphenyl)-4-piperidin-1-yl-1,5-dihydropyrrol-2-one]
responders at 300 mg/kg (maximal electroshock; dose 300 mg/kg): 0%
melting point: 117 to 123 °C
responders at 300 mg/kg (s.c. pentetrazole; [3]): 0%
logP [1]: 2.66

O=C1C=C(N2CCCCC2)CN1c1ccc(F)cc1 [Compound 13, 1-(4-fluorophenyl)-4-piperidin-1-yl-1,5-dihydropyrrol-2-one]
responders at 300 mg/kg (maximal electroshock; dose 300 mg/kg): 0%
melting point: 214 to 216 °C
responders at 300 mg/kg (s.c. pentetrazole; [3]): 0%
logP [1]: 2.35

O=C1C=C(N2CCCCC2)CN1c1ccc(Cl)cc1 [Compound 14, 1-(4-chlorophenyl)-4-piperidin-1-yl-1,5-dihydropyrrol-2-one]
responders at 100 mg/kg (maximal electroshock; dose 100 mg/kg): 100%
responders at 100 mg/kg (s.c. pentetrazole; [2]): 100%
logP [1]: 3.06

Cc1ccc(N2CC(N3CCCCC3)=CC2=O)cc1 [Compound 15, 1-(4-methylphenyl)-4-piperidin-1-yl-1,5-dihydropyrrol-2-one]
responders at 100 mg/kg (maximal electroshock; dose 100 mg/kg): 100%
melting point: 174 to 177 °C
responders at 100 mg/kg (s.c. pentetrazole; [2]): 100%
logP [1]: 2.62

O=C1C=C(N2CCCCC2)CN1c1ccc(F)c(Cl)c1 [Compound 16, 1-(3-chloro-4-fluorophenyl)-4-piperidin-1-yl-1,5-dihydropyrrol-2-one]
responders at 300 mg/kg (maximal electroshock; dose 300 mg/kg): 100%
melting point: 195 to 196 °C
responders at 300 mg/kg (s.c. pentetrazole; [3]): 0%

O=C1C=C(N2CCCC2)CN1c1ccc(Cl)cc1 [Compound 17, 1-(4-chlorophenyl)-4-pyrrolidin-1-yl-1,5-dihydropyrrol-2-one]
responders at 300 mg/kg (maximal electroshock; dose 300 mg/kg): 66%
melting point: 223 to 227 °C
responders at 300 mg/kg (s.c. pentetrazole; [3]): 0%
logP [1]: 2.6

CC1CCN(C2=CC(=O)N(c3ccc(Cl)cc3)C2)CC1 [Compound 18, 1-(4-chlorophenyl)-4-(4-methylpiperidin-1-yl)-1,5-dihydropyrrol-2-one]
responders at 100 mg/kg (maximal electroshock; dose 100 mg/kg): 66%
melting point: 194 to 196 °C
responders at 100 mg/kg (s.c. pentetrazole; [2]): 66%

CC1CCCN(C2=CC(=O)N(c3ccc(Cl)cc3)C2)C1 (centres unmarked) [Compound 19, 1-(4-chlorophenyl)-4-(3-methylpiperidin-1-yl)-1,5-dihydropyrrol-2-one]
responders at 300 mg/kg (maximal electroshock; dose 300 mg/kg): 0%
melting point: 188 to 189 °C
responders at 100 mg/kg (s.c. pentetrazole; [2]): 40%
logP [1]: 3.58

CC1CCCCN1C1=CC(=O)N(c2ccc(Cl)cc2)C1 (centres unmarked) [Compound 20, 1-(4-chlorophenyl)-4-(2-methylpiperidin-1-yl)-1,5-dihydropyrrol-2-one]
responders at 300 mg/kg (maximal electroshock; dose 300 mg/kg): 66%
melting point: 181 to 185 °C
responders at 100 mg/kg (s.c. pentetrazole; [2]): 40%

CN1CCN(C2=CC(=O)N(c3ccc(Cl)cc3)C2)CC1 [Compound 21, 1-(4-chlorophenyl)-4-(4-methylpiperazin-1-yl)-1,5-dihydropyrrol-2-one]
responders at 100 mg/kg (maximal electroshock; dose 100 mg/kg): 66%
melting point: 194 to 197 °C
responders at 100 mg/kg (s.c. pentetrazole; [2]): 100%

O=C1C=C(N2CCCCCC2)CN1c1ccc(Cl)cc1 [Compound 22, 1-(4-chlorophenyl)-4-azepam-1-yl-1,5-dihydropyrrol-2-one]
Action, % of the protected animals (maximal electroshock; dose 300 mg/kg): 100%
Action, % of the protected animals (s.c. pentetrazole; dose 300 mg/kg): 100%
log P (octanol/water partition coefficient) [1]: 3.40

CCN(CC)C1=CC(=O)N(c2ccc(Cl)cc2)C1 [Compound 23, 1-(4-chlorophenyl)-4-(diethylamino)-1,5-dihydropyrrol-2-one]
responders at 300 mg/kg (maximal electroshock; dose 300 mg/kg): 50%
melting point: 165 to 168 °C
responders at 300 mg/kg (s.c. pentetrazole; [3]): 66%

COCCN(CCOC)C1=CC(=O)N(c2ccc(Cl)cc2)C1 [Compound 24, 1-(4-chlorophenyl)-4-(bis(methoxyethyl)amino)-1,5-dihydropyrrol-2-one]
responders at 300 mg/kg (maximal electroshock; dose 300 mg/kg): 33%
melting point: 189 to 195 °C
responders at 300 mg/kg (s.c. pentetrazole; [3]): 66%

O=C1C=C(N2CCOCC2)CN1c1ccccc1 [Compound 25, 4-morpholin-4-yl-1-phenyl-1,5-dihydropyrrol-2-one]
responders at 100 mg/kg (maximal electroshock; dose 100 mg/kg): 40%
melting point: 161 to 164 °C
responders at 100 mg/kg (s.c. pentetrazole; [2]): 66%

CN1C(=O)CN=C(c2ccccc2)c2cc(Cl)ccc21 [Diazepam, diazepam]
Changed number of impulses to the control in % (Vogel Conflict Test; 0.1 mg/kg p.o.): 94%
Changed number of impulses to the control in % (Vogel Conflict Test; 0.3 mg/kg p.o.): 114%
Changed number of impulses to the control in % (Vogel Conflict Test; 1.0 mg/kg p.o.): 148%
Changed number of impulses to the control in % (Vogel Conflict Test; 3 mg/kg p.o.): 167%

CN1CCN=C(c2ccccc2)c2cc(Cl)ccc21 [Medazepam, medazepam]
anxiolytic action (in words) (Vogel Conflict Test; dose range from 0.3 to 3 mg/kg p.o.): not possible to detect
Changed number of impulses to the control in % (Vogel Conflict Test; 0.3 mg/kg p.o.): 100%
Changed number of impulses to the control in % (Vogel Conflict Test; 1.0 mg/kg p.o.): 131%
Changed number of impulses to the control in % (Vogel Conflict Test; 3 mg/kg p.o.): 78%

CCCC(CCC)C(=O)O [Valproate, reference compound]
responders at 100 mg/kg (maximal electroshock; dose 100 mg/kg): 0%
responders at 100 mg/kg (s.c. pentetrazole; [2]): 30%
